Values of other authors, collected in US20170158776A1, “TREATMENT OF LUNG CANCER USING A COMBINATION OF AN ANTI-PD-1 ANTIBODY AND ANOTHER ANTI-CANCER AGENT” (Bristol-Myers Squibb Company, priority 2014, published 2017).

System: EGFR MT NSCLC
Details: first-line treatment of EGFR MT NSCLC; cited from earlier work

**Q.** With `C#Cc1cccc(Nc2ncnc3cc(OCCOC)c(OCCOC)cc23)c1` [erlotinib] as the compound, how does the “median progression-free survival (PFS)” value read?
**A.** 10.4 months
